Earlier results on one compound are cited in US4758437A, “Composition for long acting nicardipine preparation and process of producing the composition” (Yamanouchi Pharmaceutical Co., Ltd., priority 1987, dated 1988).

Molecules are shown by their SMILES.

Turning to `COC(=O)C1=C(C)NC(C)=C(C(=O)OCCN(C)Cc2ccccc2)C1c1cccc([N+](=O)[O-])c1` (stereo not drawn) [nicardipine, 2,6-dimethyl-4-(3'-nitrophenyl)-1,4-dihydropyridine-3,5-dicarboxylic acid-3-methyl ester-5-β-(N-benzyl-N-methylamino)-ethyl ester], where the note is “about pH 1.2, nicardipine or its salt”, the “solubility in the first fluid of Japanese Pharmacopeia IX” value is recorded as “good solubility”. In addition, for the setting “about pH 7.5”, the “solubility in the second fluid of Japanese Pharmacopeia IX” value is “sparingly soluble”. For the same compound, where the note is “intestinal juice”, the “solubility in intestinal juice” value was “practically insoluble”.
